pIC50: −log10 of the molar value. Counter-ions that a name gives are not always drawn.

One data set has as its system HIV-1 luciferase reporter virus in U87-CD4-CCR5 cells. Description: HIV Replication (luciferase) assay. It is filed as cell-based. Particulars: Human immunodeficiency virus 1, U87/CD4/CCR5. The protocol:
Luciferase Replication Assay:
Plasmids encoding the full length genome of HIV-1 pNL-4-Luc with the gp120 V-3 loop replaced by the Bgl II fragment of HIV-1 ADA, YU-2 or HxB (ADA-Luc-FL, YU-2-Luc-FL and HxB-Luc-FL) are obtained from Dr. Susan Pontow (Washington University, St. Louis Mo.). Replication-competent luciferase reporter virus stocks are generated by transfection of plasmids into 293T cells using Superfect (Qiagen) or Mirus transfection reagents. Viral stocks are collected 48 hours following transfection and titered for luciferase production on U-87-CCR5 or CXCR4 cells. U87-CD4-CCR5 cells (10^4/well) are plated in 96-well cell culture plates and incubated overnight. Media is removed and replaced with 50 μl of fresh culture media (DMEM, 10% FCS) and 50 μl of compound diluted in culture medium. Cells are incubated with compound at 37° C. for 1 hour. The resultant supernatant is removed and replaced with 20 μl of media containing compound and infected with an equal volume of diluted or undiluted virus stock at 37° C. for 3-4 hours. The cells are washed once with DMEM, and 200 μl of media containing compound is added. The cultures are incubated for 3 days, the cells lysed in luciferase lysis buffer (Promega, Madison, Wis.) and transferred to Immulon plates (Dynex Technologies, Chantilly Va.). An equal volume of luciferase substrate (Promega, Madison Wis.) is added to lysates and the plates read immediately in a Wallac Luminometer. Fifty and ninety percent inhibitory concentrations are determined using GraphPad PRISM software.
By pIC50 is commonly meant −log10 of the IC50, conventionally taken in molar units. Take `Cc1ncnc(C)c1C(=O)N1CCC(C)(N2CCC(N(c3ccccc3)c3ccc(C(F)(F)F)nc3)CC2)CC1` [Compound 69]: the pIC50 was 9.96.

`Cc1ncnc(C)c1C(=O)N1CCC(C)(N2CCC(N(Cc3ccccc3)c3ccncc3)CC2)CC1` [Compound 108] had a pIC50 of 9.10.

`CCCN(c1cccc2cccnc12)C1CCN(C2(C)CCN(C(=O)c3c(C)ncnc3C)CC2)CC1` [Compound 110]: the pIC50 is 7.64.

The molecule `Cc1ncnc(C)c1C(=O)N1CCC(C)(N2CCC(N(Cc3ccccc3)C3CCCN(S(=O)(=O)C4CC4)C3)CC2)CC1` (stereo not drawn) [Compound 112] had a pIC50 of 7.52.

The same data set, now with this note: Human immunodeficiency virus 1, U87/CD4/CCR5, read-out: HIV Replication (luciferase) IC50.
Regarding `Cc1ncnc(C)c1C(=O)N1CCC(C)(N2CCC(N(Cc3ccccc3)c3cccc(C(N)=O)c3)CC2)CC1` [Compound 61], the pIC50 is 9.30.

As for `Cc1ncnc(C)c1C(=O)N1CCC(C)(N2CCC(N(Cc3ccccc3)c3cccc(C(=O)N4CCOCC4)c3)CC2)CC1` [Compound 62], the pIC50 was 8.40.

On to `CCN(CC)C(=O)c1cccc(N(Cc2ccccc2)C2CCN(C3(C)CCN(C(=O)c4c(C)ncnc4C)CC3)CC2)c1` [Compound 63], for which the pIC50 was 8.22.

Turning to `Cc1ncnc(C)c1C(=O)N1CCC(C)(N2CCC(N(Cc3ccccc3)c3cccc(C(=O)NO)c3)CC2)CC1` [Compound 64], the pIC50 is 8.40.

Take `Cc1ncnc(C)c1C(=O)N1CCC(C)(N2CCC(N(Cc3ccccc3)c3cccc(C(=O)Nc4ccccc4)c3)CC2)CC1` [Compound 65]: the pIC50 is 8.70.

Regarding `Cc1ncnc(C)c1C(=O)N1CCC(C)(N2CCC(N(Cc3ccccc3)c3cccc(C(=O)NCc4ccccc4)c3)CC2)CC1` [Compound 66], the pIC50 was 9.00.

Turning to `Cc1ncnc(C)c1C(=O)N1CCC(C)(N2CCC(N(Cc3ccccc3)c3cccc(C(=O)NCCO)c3)CC2)CC1` [Compound 67], the pIC50 is 8.22.

For the molecule `Cc1ncnc(C)c1C(=O)N1CCC(C)(N2CCC(N(Cc3ccccc3)c3cccc(C(=O)NC4CC4)c3)CC2)CC1` [Compound 68], the pIC50 is 8.70.

Consider `Cc1ncnc(C)c1C(=O)N1CCC(C)(N2CCC(N(c3ccccc3)c3ccc(OC(F)(F)F)cc3)CC2)CC1` [Compound 70], for which the pIC50 was 9.00.

As for `Cc1ncnc(C)c1C(=O)N1CCC(C)(N2CCC(N(c3ccccc3)c3ccc(Br)cn3)CC2)CC1` [Compound 71], the pIC50 was 9.22.

As for `Cc1ncnc(C)c1C(=O)N1CCC(C)(N2CCC(N(c3ccccc3)c3ccccc3)CC2)CC1` [Compound 72], the pIC50 was 9.52.

On to `Cc1ncnc(C)c1C(=O)N1CCC(C)(N2CCC(N(c3ccccc3)c3ccc(Cl)cc3)CC2)CC1` [Compound 73], for which the pIC50 was 9.52.

In the case of `Cc1ncnc(C)c1C(=O)N1CCC(C)(N2CCC(N(CC3CC3)c3ccccc3)CC2)CC1` [Compound 74], the pIC50 is 8.00.

With `Cc1ncnc(C)c1C(=O)N1CCC(C)(N2CCC(N(CCc3ccccc3)c3ccccc3)CC2)CC1` [Compound 75], the pIC50 is 7.42.

`Cc1ncnc(C)c1C(=O)N1CCC(C)(N2CCC(N(c3ccccc3)c3ccc(C(F)(F)F)cn3)CC2)CC1` [Compound 76]: the pIC50 is 9.70.

In the case of `Cc1ncnc(C)c1C(=O)N1CCC(C)(N2CCC(N(c3ccccc3)c3ccccn3)CC2)CC1` [Compound 77], the pIC50 is 8.15.

In the case of `Cc1ncnc(C)c1C(=O)N1CCC(C)(N2CCC(N(c3ccccc3)c3ccc(Cl)cn3)CC2)CC1` [Compound 78], the pIC50 is 9.00.

With `Cc1ncnc(C)c1C(=O)N1CCC(C)(N2CCC(N(c3ccccc3)c3ccc(F)cc3)CC2)CC1` [Compound 79], the pIC50 is 9.00.

As for `Cc1ncnc(C)c1C(=O)N1CCC(C)(N2CCC(N(Cc3cccnc3)c3ccccc3)CC2)CC1` [Compound 80], the pIC50 is 8.70.

With `Cc1cc(-c2cc[n+]([O-])cc2)cc(C)c1C(=O)N1CCC(C)(N2CCC(N(c3ccccc3)c3ccc(OC(F)(F)F)cc3)CC2)CC1` [Compound 81], the pIC50 is 8.52.

With `Cc1cc(-c2cc[n+]([O-])cc2)cc(C)c1C(=O)N1CCC(C)(N2CCC(N(c3ccccc3)c3ccc(C(F)(F)F)nc3)CC2)CC1` [Compound 82], the pIC50 is 10.00.

In the case of `Cc1cc(-c2cc[n+]([O-])cc2)cc(C)c1C(=O)N1CCC(C)(N2CCC(N(c3ccccc3)c3ccc(C(F)(F)F)cn3)CC2)CC1` [Compound 83], the pIC50 is 10.30.

For the molecule `Cc1cc(-c2cc[n+]([O-])cc2)cc(C)c1C(=O)N1CCC(C)(N2CCC(N(Cc3ccccn3)c3ccccc3)CC2)CC1` [Compound 84], the pIC50 is 8.00.

For the molecule `Cc1ncnc(C)c1C(=O)N1CCC(C)(N2CCC(N(Cc3ccncc3)c3ccccc3)CC2)CC1` [Compound 86], the pIC50 was 7.12.

Consider `Cc1ncnc(C)c1C(=O)N1CCC(C)(N2CCC(N(c3ccccc3)c3cccc(Br)c3)CC2)CC1` [Compound 87], for which the pIC50 is 10.00.

Regarding `Cc1ncnc(C)c1C(=O)N1CCC(C)(N2CCC(N(Cc3ccncc3)c3ccc(Br)cc3)CC2)CC1` [Compound 88], the negative logarithm of the IC50 (pIC50) is 8.30.

On to `Cc1ncnc(C)c1C(=O)N1CCC(C)(N2CCC(N(Cc3ccccn3)c3ccc(Br)cc3)CC2)CC1` [Compound 89], for which the pIC50 is 9.10.

As to `Cc1ncnc(C)c1C(=O)N1CCC(C)(N2CCC(N(Cc3ccccn3)c3ccccc3)CC2)CC1` [Compound 90], the pIC50 is 8.47.

As for `COc1ccc(N(c2ccccc2)C2CCN(C3(C)CCN(C(=O)c4c(C)ncnc4C)CC3)CC2)cc1Cl` [Compound 91], the pIC50 is 9.92.

Turning to `Cc1ncnc(C)c1C(=O)N1CCC(C)(N2CCC(N(c3ccccc3)c3cc(Cl)cc(Cl)c3)CC2)CC1` [Compound 92], the pIC50 was 8.39.

For the molecule `Cc1ncnc(C)c1C(=O)N1CCC(C)(N2CCC(N(c3ccccc3)c3cccc(F)c3)CC2)CC1` [Compound 93], the pIC50 was 9.68.

On to `COc1cccc(N(c2ccccc2)C2CCN(C3(C)CCN(C(=O)c4c(C)ncnc4C)CC3)CC2)c1` [Compound 94], for which the pIC50 is 9.00.

For the molecule `Cc1ncnc(C)c1C(=O)N1CCC(C)(N2CCC(N(c3ccccc3)c3ccc(Br)c(C(F)(F)F)c3)CC2)CC1` [Compound 95], the pIC50 is 8.70.

As to `Cc1cccc(N(c2ccccc2)C2CCN(C3(C)CCN(C(=O)c4c(C)ncnc4C)CC3)CC2)c1` [Compound 96], the negative logarithm of the IC50 (pIC50) was 9.52.

For `Cc1ncnc(C)c1C(=O)N1CCC(C)(N2CCC(N(Cc3cccnc3)c3ccc(Br)cc3)CC2)CC1` [Compound 97], the pIC50 was 9.52.

As for `Cc1ncnc(C)c1C(=O)N1CCC(C)(N2CCC(N(CC3CCCCC3)c3ccc(Br)cc3)CC2)CC1` [Compound 98], the pIC50 is 8.70.

With `CCOc1ccc(N(c2ccccc2)C2CCN(C3(C)CCN(C(=O)c4c(C)ncnc4C)CC3)CC2)cc1` [Compound 99], the pIC50 is 9.52.

Regarding `CCc1ccc(N(c2ccccc2)C2CCN(C3(C)CCN(C(=O)c4c(C)ncnc4C)CC3)CC2)cc1` [Compound 100], the pIC50 is 10.00.

Turning to `Cc1ncnc(C)c1C(=O)N1CCC(C)(N2CCC(N(c3ccccc3)c3cc(F)cc(F)c3)CC2)CC1` [Compound 101], the pIC50 was 10.00.

In the case of `COCCN(c1ccc(Br)cc1)C1CCN(C2(C)CCN(C(=O)c3c(C)ncnc3C)CC2)CC1` [Compound 103], the pIC50 was 8.70.

Take `Cc1ncnc(C)c1C(=O)N1CCC(C)(N2CCC(N(c3ccccc3)c3ccccc3F)CC2)CC1` [Compound 104]: the pIC50 was 8.52.

Regarding `Cc1ncnc(C)c1C(=O)N1CCC(C)(N2CCC(N(c3ccccc3)c3ccc(Oc4ccccc4)cc3)CC2)CC1` [Compound 105], the pIC50 is 8.30.

As to `Cc1ncnc(C)c1C(=O)N1CCC(C)(N2CCC(N(CC3CCCCC3)c3ccccc3)CC2)CC1` [Compound 106], the pIC50 was 9.00.

`Cc1ncnc(C)c1C(=O)N1CCC(C)(N2CCC(N(c3ccccc3)c3ccc(I)cc3)CC2)CC1` [Compound 107]: the pIC50 was 9.00.

Tested on in another data set: not given
Assay: not given
Conditions: not given
The term melting point denotes the temperature, or range, at which the solid turns liquid. Consider `Cc1ncnc(C)c1C(=O)N1CCC(C)(N2CCC(N(C)c3ccc(Cl)c4cccnc34)CC2)CC1` (as salt: HCl), for which the melting point is 164 to 167 °C (dec.).

With `Cc1ncnc(C)c1C(=O)N1CCC(C)(N2CCC(N(Cc3ccccc3)c3ccc(Br)cc3)CC2)CC1` (as salt: HCl), the melting point is 168 to 170 °C.

In turn, `Cc1ncnc(C)c1C(=O)N1CCC(C)(N2CCC(N(c3ccccc3)c3ccc(C(F)(F)F)nc3)CC2)CC1` (as salt: HCl) [Compound 69] displayed a melting point of 189 to 193 °C.

Turning to `Cc1ncnc(C)c1C(=O)N1CCC(C)(N2CCC(N(Cc3ccccc3)c3ccncc3)CC2)CC1` (as salt: HCl) [Compound 108], the melting point lay in the range of 182 to 189 °C.

With `CCCN(c1cccc2cccnc12)C1CCN(C2(C)CCN(C(=O)c3c(C)ncnc3C)CC2)CC1` (as salt: HCl) [Compound 110], the melting point is 181 °C (dec.).

In the case of `Cc1ncnc(C)c1C(=O)N1CCC(C)(N2CCC(N(Cc3ccccc3)C3CCCN(S(=O)(=O)C4CC4)C3)CC2)CC1` (stereo not drawn) (as salt: HCl) [Compound 112], the melting point is 190 to 195 °C.

The values above are taken from patent US7442703B2, “Piperidine derivatives useful as CCR5 antagonists” (priority 2001, dated 2008).
